{
  "source": "paper PMC7456477",
  "about": "“Pharmacokinetic Study of Thirteen Ingredients after the Oral Administration of Flos Chrysanthemi Extract in Rats by UPLC-MS/MS” (BioMed Research International, 2020)",
  "key": {"[1]": {"experiment": "Pharmacokinetic study in rat plasma after oral administration of Flos Chrysanthemi extract (UPLC-MS/MS)", "format": "in vivo, Sprague-Dawley rats", "details": "rats, oral Flos Chrysanthemi extract 10 g/kg, result in words", "experimental": "Six male Sprague-Dawley rats (250 ± 5 g) were purchased from Huafukang Bioscience Co., Inc. (Beijing, China). The rats were adapted to the facility for a week. Before the experiments, rats were fasted for 12 h, although drinking water was readily accessible. Flos Chrysanthemi extract was dissolved in CMC-Na aqueous solution and orally administered to the animals once at 10 g/kg. Blood samples (220 μL) were taken from the orbital venous plexus of rats at 0, 0.03, 0.08, 0.17, 0.25, 0.5, 1, 2, 4, 6, 8, 10, 12, and 24 h after extract administration. Blood samples were promptly centrifuged at 6000 rpm for 10 min, and plasma samples were collected. The obtained plasma was stored at -80°C until analysis. “Drug and Statistics 3.0” software (Medical College of Wannan, China) was used to calculate pharmacokinetic parameters. The animal protocol was approved by the Animal Ethics Committee of Tianjin University of Traditional Chinese Medicine (TCM-LAEC20190056).\nPlasma samples from rats orally administered with Flos Chrysanthemi extract (10.0 g/kg) were analysed with UPLC-MS/MS. Plasma concentration-time curves are shown in Figure 3, and the primary pharmacokinetic parameters of each analyte are summarized in Table 6."}, "[2]": {"experiment": "Stability of analytes in rat plasma (QC samples under four storage conditions)", "format": "in vitro ADME", "details": "n = 6", "experimental": "To study the stability of all compounds in rat plasma, low, medium, and high concentrations of QC samples were tested under the following test conditions: stored at an autosampler for 12 hours, stored at room temperature for 6 hours, put through three freeze/thaw cycles, and stored at -80°C for 14 days. Three QC concentrations were tested for each of the above conditions.\nThe stability of all 13 analytes during sample collection and processing was evaluated with the various storage conditions being tested on spiked plasma samples at three QC concentrations."}, "[3]": {"details": "spiked concentration 1000 ng/mL"}},
  "data": [
    {"compound": "COc1ccc(-c2cc(=O)c3c(O)cc(O[C@@H]4O[C@H](CO)[C@@H](O)[C@H](O)[C@H]4O)cc3o2)cc1", "note": "[Tilianin]", "values": [
      {"measurement": "Detection in plasma over the sampling time", "setting": "[1]", "value": "detected only at the first few blood sampling points"},
      {"measurement": "Measured concentration, -80°C for 14 days", "setting": "[2]; spiked concentration 1 ng/mL", "value": "0.9 ± 0.1", "unit": "ng/mL"},
      {"measurement": "Measured concentration, Autosampler for 12 h", "setting": "[2]; spiked concentration 1 ng/mL", "value": "0.9 ± 0.1", "unit": "ng/mL"},
      {"measurement": "Measured concentration, Room temperature for 6 h", "setting": "[2]; spiked concentration 1 ng/mL", "value": "1.1 ± 0.1", "unit": "ng/mL"},
      {"measurement": "Measured concentration, Three freeze-thaw cycles", "setting": "[2]; spiked concentration 1 ng/mL", "value": "1.0 ± 0.1", "unit": "ng/mL"},
      {"measurement": "Measured concentration, -80°C for 14 days", "setting": "[2]; spiked concentration 10 ng/mL", "value": "10.2 ± 0.2", "unit": "ng/mL"},
      {"measurement": "Measured concentration, Autosampler for 12 h", "setting": "[2]; spiked concentration 10 ng/mL", "value": "9.3 ± 0.1", "unit": "ng/mL"},
      {"measurement": "Measured concentration, Room temperature for 6 h", "setting": "[2]; spiked concentration 10 ng/mL", "value": "9.9 ± 0.3", "unit": "ng/mL"},
      {"measurement": "Measured concentration, Three freeze-thaw cycles", "setting": "[2]; spiked concentration 10 ng/mL", "value": "11.3 ± 0.2", "unit": "ng/mL"},
      {"measurement": "Measured concentration, -80°C for 14 days", "setting": "[2]; spiked concentration 200 ng/mL", "value": "188.6 ± 0.9", "unit": "ng/mL"},
      {"measurement": "Measured concentration, Autosampler for 12 h", "setting": "[2]; spiked concentration 200 ng/mL", "value": "179.0 ± 1.2", "unit": "ng/mL"},
      {"measurement": "Measured concentration, Room temperature for 6 h", "setting": "[2]; spiked concentration 200 ng/mL", "value": "226.4 ± 0.2", "unit": "ng/mL"},
      {"measurement": "Measured concentration, Three freeze-thaw cycles", "setting": "[2]; spiked concentration 200 ng/mL", "value": "209.6 ± 0.3", "unit": "ng/mL"}
    ]},
    {"compound": "Isoquercitrin", "values": [
      {"measurement": "Detection in plasma over the sampling time", "setting": "[1]", "value": "detected only at the first few blood sampling points"},
      {"measurement": "Measured concentration, -80°C for 14 days", "setting": "[2]; spiked concentration 5 ng/mL", "value": "4.5 ± 0.1", "unit": "ng/mL"},
      {"measurement": "Measured concentration, Autosampler for 12 h", "setting": "[2]; spiked concentration 5 ng/mL", "value": "4.0 ± 0.2", "unit": "ng/mL"},
      {"measurement": "Measured concentration, Room temperature for 6 h", "setting": "[2]; spiked concentration 5 ng/mL", "value": "4.7 ± 0.2", "unit": "ng/mL"},
      {"measurement": "Measured concentration, Three freeze-thaw cycles", "setting": "[2]; spiked concentration 5 ng/mL", "value": "5.6 ± 0.1", "unit": "ng/mL"},
      {"measurement": "Measured concentration, -80°C for 14 days", "setting": "[2]; spiked concentration 50 ng/mL", "value": "50.7 ± 2.1", "unit": "ng/mL"},
      {"measurement": "Measured concentration, Autosampler for 12 h", "setting": "[2]; spiked concentration 50 ng/mL", "value": "41.6 ± 0.5", "unit": "ng/mL"},
      {"measurement": "Measured concentration, Room temperature for 6 h", "setting": "[2]; spiked concentration 50 ng/mL", "value": "49.0 ± 1.2", "unit": "ng/mL"},
      {"measurement": "Measured concentration, Three freeze-thaw cycles", "setting": "[2]; spiked concentration 50 ng/mL", "value": "54.5 ± 0.8", "unit": "ng/mL"},
      {"measurement": "Measured concentration, -80°C for 14 days", "setting": "[2]; [3]", "value": "1006.3 ± 30.5", "unit": "ng/mL"},
      {"measurement": "Measured concentration, Three freeze-thaw cycles", "setting": "[2]; [3]", "value": "1110.5 ± 21.8", "unit": "ng/mL"}
    ]}
  ]
}
